Laboratory results published in patent US20230295436A1, “INTERMOLECULARLY-FABRICATED COMPOSITION FOR ENCAPSULATING PLANT MATERIALS, AGROCHEMICALS AND PHARMACEUTICALS” (University of Central Florida Research Foundation, Inc., priority 2022, published 2023).
Converted amounts (≈) assume the structure as drawn.

Assays:
S16 Rat Schwann Cells = experiment: AlamarBlue viability assay, S16; type: cell-based; details: S16 RSCs, 24 hours, 0 to 80 μM curcumin
Experimental: The viability of cells when treated with Cur-TA-PVP, TA-PVP, or free curcumin was assessed to determine the therapeutic window of treatments. This was done by performing an alamarBlue (resazurin) assay according to the manufacturer's instructions. The cell types assessed were models for those involved in PNI and subsequent PNR: S16 rat Schwann cells (RSCs), J744 murine macrophages, and SH-SY5Y cells (neuronal cell line). SH-SY5Y cells were cultured in DMEM/F12 supplemented with 10% FBS and 1% penicillin/streptomycin, whereas the J744 macrophages and S16 RSCs were cultured in DMEM supplemented with 10% FBS and 1% streptomycin/penicillin.
First, cells (n=3) were seeded in 96 well plates at a density of 10^4 cells per well and incubated overnight in a humidified atmosphere at 37° C. and 5% CO2. Cur-TA-PVP and free curcumin were then introduced into the wells at a concentration range of 0 to 80 μM curcumin. In the case of TA-PVP, the concentration range was equivalent to TA and PVP concentrations in the Cur-TA-PVP NPs. The plates were incubated for 24 hours, and the media containing treatments was then removed and fresh media with 10% 0.15 mg/mL resazurin was added into all wells. The plates were incubated for 2 hours, and the fluorescence was read using a Tecan plate reader at an ex/em of 560/590 nm. The cell viability was calculated using the following equation.

SH-SY5Y cells = experiment: H2O2-induced oxidative stress and cell viability, SH-SY5Y; type: cell-based; details: 6 hours pre-treatment, 50 μM H2O2 for 18 hours
Experimental: The potential for Cur-TA-PVP, TA-PVP, or free curcumin to rescue cells from oxidative damage induced by H2O2 was assessed to determine the antioxidant activity of the treatments in cells. The assay was performed according to a previously published protocol by Mahakunakorn et al. [Mahakunakorn, P., et al., Cytoprotective and cytotoxic effects of curcumin: dual action on H2O2-induced oxidative cell damage in NG108-15 cells. Biol Pharm Bull, 2003. 26(5): p. 725-8.]. Briefly, SH-SY5Y cells and J744 murine macrophages were each seeded in 96 well plates (n=3) and incubated overnight at 37° C. and 5% CO2. Cells were then pre-treated with fresh media containing treatments for 6 hours, and then with fresh media containing 100 μM H2O2 (J774) or 50 μM (SH-SY5Y) for another 18 hours. The media was then replaced with complete media containing 10% of 0.15 mg/mL resazurin. The cells were incubated for 2 hours, and the fluorescence was read at an ex/em of 560/590 nm. The cell viability was determined using the equation noted in section 10.3.1.

[1] = cited from earlier work
[2] = Appearance / colloidal stability in water; type: physicochemical; details: aqueous solution
Excerpt: Biochim Biophys Acta, 2008. 1780(4): p. 673-9.]. Curcumin directly interacts with or leads to the upregulation of many intracellular proteins involved in anti-inflammation, antioxidant, neuroprotective, and re-myelination pathways [Caillaud, M., et al., Key Developments in the Potential of Curcumin for the Treatment of Peripheral Neuropathies. Antioxidants (Basel), 2020. 9(10).]. Thus, the therapeutic potential of free curcumin is lowered by its propensity to reside in the lipid bilayer. Since the TA-PVP carrier improves the stability of curcumin in water, it is therefore expected that this would enhance its availability within the cytoplasm of cells to reach or upregulate targets involved in achieving successful PNR. The NP formulation dramatically increases the colloidal stability of curcumin compared to its free form alone in the aqueous solution.

[3] = Degradation rate of curcumin in aqueous solution; type: physicochemical
Experimental: The degradation rate of Cur-TA-PVP NPs and free curcumin was determined by measuring the peak absorbance over time as this can be correlated to the concentration in solution. […] Absorbance readings of samples were acquired at 425 nm every 60 minutes for 24 hours. Degradation rate equations were determined based on the trendlines that provide an R2 of 0.95 or greater. Simple linear regressions were also performed to compare the slopes of the degradation curves to determine if the difference was statistically significant.

[4] = Zeta potential (surface charge); type: physicochemical; details: optimized formulations and controls, Table 1
Excerpt: (§1) Malvern Zetasizer Nano ZS90 was used to study the hydrodynamic size, surface charge, and polydispersity index (PDI) of the NPs. Agilent Cary 300 Bio UV-Vis spectrophotometer was used to measure the absorbance of materials across the UV-Visible spectrum. Spectronic 200 spectrophotometer was used to carry out the degradation and release rate studies. Samples were freeze-dried using a Labconco lyophilizer. Shimadzu IRSpirit with QATR-S was used to obtain
(§2) DLS and ZP measurements were done using a Malvern Zetasizer ZS90 to determine the samples' hydrodynamic size and surface charge, respectively. The samples were diluted to approximately 200 ppm of curcumin to obtain 100 to 1000 kilo counts per second (kcps). Samples were added into the appropriate cuvettes for DLS and ZP readings.

[5] = Dynamic light scattering (hydrodynamic size, PDI); type: physicochemical; details: optimized formulations and controls, Table 1
Excerpt: as §1, §2

slope of degradation curve (simple linear regression) ([3]; 40 μM in water, absorbance at 425 nm every 60 minutes for 24 hours): −0.01123 | Zeta Potential [4]: −13 mV | Polydispersity Index (PDI) [5]: 0.578 | Z-ave [5]: 328 nm·days
Structure (SMILES): COc1cc(/C=C/C(=O)CC(=O)/C=C/c2ccc(O)c(OC)c2)ccc1O [Free Curcumin, curcumin]
cell viability compared to other treatment groups (S16 Rat Schwann Cells): higher cell viability than the other treatment groups at all concentrations | protection against H2O2-induced oxidative stress (cell rescue) (SH-SY5Y cells): no cell rescue | water solubility [1]: 100 µg/mL (≈ 271 µM) | colloidal stability in water (appearance) [2]: precipitate and sink to the bottom of the vial | curcumin remaining in its viable form ([3]; after 24 hours of dispersion in PBS): about 60%
